Source: the NIST ThermoML archive (doi:10.1021/je3004645)

Details: for electrical conductivity / mass density / viscosity: 101.33 kPa, Liquid; for electrical conductivity: Alternating current cell with electrodes; for mass density: Pycnometric method; for viscosity: Capillary tube (Ostwald / Ubbelohde) method; for Triple point temperature / Glass transition temperature: DTA

CCCC[n+]1ccc(C)cc1.O=S(=O)([N-]S(=O)(=O)C(F)(F)F)C(F)(F)F
Details	Glass transition temperature [°C]	Triple point temperature [K]	electrical conductivity [S/m]	mass density [kg/m3]	viscosity [mPa·s]
–	-78	–	–	–	–
278.15 K	–	–	0.124	–	–
283.15 K	–	–	0.166	1432.8	–
288.15 K	–	–	0.215	1428.4	–
293.15 K	–	–	0.273	1423.4	–
298.15 K	–	–	0.341	1418.7	55.14
303.15 K	–	–	0.419	1414	44.2
308.15 K	–	–	0.509	1409.3	35.85
313.15 K	–	–	0.6	1404.7	29.61
318.15 K	–	–	0.702	1400.2	24.77
323.15 K	–	–	0.817	1395.8	20.85
328.15 K	–	–	0.941	1391.3	17.86
333.15 K	–	–	1.07	1386.9	15.37
338.15 K	–	–	1.21	1382.5	13.42
343.15 K	–	–	–	–	11.65
348.15 K	–	–	–	–	10.15
353.15 K	–	–	–	–	8.89
358.15 K	–	–	–	–	7.94
Crystal 1	–	292.4	–	–	–
Crystal 2	–	242.2	–	–	–
Crystal 3	–	235.8	–	–	–

CC[n+]1ccc(C)cc1.O=S(=O)([N-]S(=O)(=O)C(F)(F)F)C(F)(F)F
Details	Glass transition temperature [°C]	Triple point temperature [K]	electrical conductivity [S/m]	mass density [kg/m3]	viscosity [mPa·s]
–	-74.5	–	–	–	–
283.15 K	–	–	0.424	1505.2	–
288.15 K	–	–	0.525	1501	–
293.15 K	–	–	0.638	1496.1	–
298.15 K	–	–	0.763	1492	32.75
303.15 K	–	–	0.901	1487.7	27.31
308.15 K	–	–	1.05	1483	23.1
313.15 K	–	–	1.21	1478.3	19.69
318.15 K	–	–	1.38	1473.4	16.95
323.15 K	–	–	1.55	1468.8	14.66
328.15 K	–	–	1.75	1464.4	12.85
333.15 K	–	–	1.96	1459.9	11.34
338.15 K	–	–	2.17	1455.1	10.1
343.15 K	–	–	–	–	9.07
348.15 K	–	–	–	–	8.19
353.15 K	–	–	–	–	7.43
358.15 K	–	–	–	–	6.76
363.15 K	–	–	–	–	6.19
Crystal 1	–	291	–	–	–
Crystal 2	–	278.2	–	–	–
